Source: patent publication US20240124458A1, “POLYMORPHS OF AVAPRITINIB AND METHODS FOR PREPARING THE POLYMORPHS” (Macfarlan Smith Limted, priority 2020, published 2024)

Assay: Gravimetric vapour sorption (GVS) isotherm, with XRPD after analysis
Type: physicochemical
Settings: for water uptake (GVS isotherm plot): 25° C./90% RH; for XRPD after GVS analysis (change in form): after GVS cycles, 0-90% RH at 25° C.
Procedure: XRPD diffractograms were collected on a Bruker D8 diffractometer using Cu Kα radiation (40 kV, 40 mA) and a θ-2θ goniometer fitted with a Ge monochromator. The incident beam passes through a 2.0 mm divergence slit followed by a 0.2 mm anti-scatter slit and knife edge. The diffracted beam passes through an 8.0 mm receiving slit with 2.5° Soller slits followed by the Lynxeye Detector. The software used for data collection and analysis was Diffrac Plus XRD Commander and Diffrac Plus EVA respectively.
Hygroscopicity of a solid material may be determined by means of gravimetric vapour sorption (GVS) analysis, sometimes known by dynamic vapour sorption (DVS) analysis.
The experiment subjects a sample material which is held in a fine wire basket on a microbalance within a temperature and humidity controlled environment (chamber). Using the software, the collected data can then be processed to determine the isotherm points at the increment ranges specified during the experiment and show the overall water uptake of the material.
Sorption isotherms were obtained using a SMS DVS Intrinsic moisture sorption analyser, controlled by DVS Intrinsic Control software. The sample temperature was maintained at 25° C. by the instrument controls. The humidity was controlled by mixing streams of dry and wet nitrogen, with a total flow rate of 200 ml/min. The relative humidity was measured by a calibrated Rotronic probe (dynamic range of 1.0-100% RH), located near the sample. The weight change, (mass relaxation) of the sample as a function of %RH was constantly monitored by a microbalance (accuracy ±0.005 mg).
Typically, 5-30 mg of sample was placed in a tared mesh stainless steel basket under ambient conditions. The sample was loaded and unloaded at 40% RH and 25° C. (typical room conditions). A moisture sorption isotherm was performed as outlined below (2 scans per complete cycle). The standard isotherm was performed at 25° C. at 10% RH intervals over a 0-90% RH range. Typically, a double cycle (4 scans) was carried out. Data analysis was carried out within Microsoft Excel using the DVS Analysis Suite.

| water uptake (GVS isotherm plot) | XRPD after GVS analysis (change in form) | Compound |
| --- | --- | --- |
| about 4.0 % w/w | unchanged | Cn1cc(-c2cc3c(N4CCN(c5ncc([C@@](C)(N)c6ccc(F)cc6)cn5)CC4)ncnn3c2)cn1 [avapritinib hydrate, (1S)-1-(4-fluorophenyl)-1-[2-[4-[6-(1-methylpyrazol-4-yl)pyrrolo[2,1-f][1,2,4]triazin-4-yl]piperazin-1-yl]pyrimidin-5-yl]ethanamine] |
| about 0.1 % w/w | unchanged | Cn1cc(-c2cc3c(N4CCN(c5ncc([C@@](C)(N)c6ccc(F)cc6)cn5)CC4)ncnn3c2)cn1 [avapritinib anhydrate, (1S)-1-(4-fluorophenyl)-1-[2-[4-[6-(1-methylpyrazol-4-yl)pyrrolo[2,1-f][1,2,4]triazin-4-yl]piperazin-1-yl]pyrimidin-5-yl]ethanamine] |
